In PubChem BioAssay AID248 (DTP/NCI, 2004):
Where “and” joins values, the source holds several entries; their conditions need not be identical. Equal values may be shown once. Toxic doses and inconclusive results are not listed. No stated cut-off is given here; in the data, active means T/C of 150% or more; inactive means T/C below 125%.

Tested on: L1210 leukemia ip in BDF1 mice, survival T/C
Experiment: NCI In Vivo Anticancer Drug Screen. Data for tumor model L1210 Leukemia (intraperitoneal) in B6D2F1 (BDF1) mice
Details: endpoint: mean survival time, higher = longer survival
How it was run: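 Tumor was transplanted into mice, which were then dosed with test compound or vehicle alone. Survival was recorded for each group, and the treated figure was expressed relative to the control figure.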

[1] = dose: 100.0 mg/kg/injection, schedule: Q01DX001 (ip), vehicle: saline
[2] = dose: 200.0 mg/kg/injection, schedule: Q01DX001 (ip), vehicle: saline
[3] = dose: 400.0 mg/kg/injection, schedule: Q01DX001 (ip), vehicle: saline
[4] = dose: 100.0 mg/kg/injection, schedule: Q04DX003 (ip), vehicle: other
[5] = dose: 200.0 mg/kg/injection, schedule: Q04DX003 (ip), vehicle: other
[6] = dose: 100.0 mg/kg/injection, schedule: Q01DX009 (ip), vehicle: Klucel (hydroxypropylcellulose) (HPC)
[7] = dose: 200.0 mg/kg/injection, schedule: Q01DX009 (ip), vehicle: Klucel (hydroxypropylcellulose) (HPC)
[8] = dose: 100.0 mg/kg/injection, schedule: Q04DX002 (ip), vehicle: Klucel (hydroxypropylcellulose) (HPC)
[9] = dose: 200.0 mg/kg/injection, schedule: Q04DX002 (ip), vehicle: Klucel (hydroxypropylcellulose) (HPC)
[10] = dose: 400.0 mg/kg/injection, schedule: Q01DX009 (ip), vehicle: Klucel (hydroxypropylcellulose) (HPC)
[11] = dose: 400.0 mg/kg/injection, schedule: Q04DX002 (ip), vehicle: Klucel (hydroxypropylcellulose) (HPC)
[12] = dose: 100.0 mg/kg/injection, schedule: Q04DX003 (ip), vehicle: saline with Tween-80
[13] = dose: 200.0 mg/kg/injection, schedule: Q04DX003 (ip), vehicle: saline with Tween-80
[14] = dose: 400.0 mg/kg/injection, schedule: Q04DX003 (ip), vehicle: saline with Tween-80
[15] = dose: 100.0 mg/kg/injection, schedule: Q04DX003 (ip), vehicle: Klucel (hydroxypropylcellulose) (HPC)
[16] = dose: 200.0 mg/kg/injection, schedule: Q04DX003 (ip), vehicle: Klucel (hydroxypropylcellulose) (HPC)
[17] = dose: 400.0 mg/kg/injection, schedule: Q04DX003 (ip), vehicle: Klucel (hydroxypropylcellulose) (HPC)
[18] = dose: 50.0 mg/kg/injection, schedule: Q01DX001 (ip), vehicle: saline
[19] = dose: 100.0 mg/kg/injection, schedule: Q01DX001 (ip), vehicle: carboxymethylcellulose (CMC)
[20] = dose: 200.0 mg/kg/injection, schedule: Q01DX001 (ip), vehicle: carboxymethylcellulose (CMC)
[21] = dose: 400.0 mg/kg/injection, schedule: Q01DX001 (ip), vehicle: carboxymethylcellulose (CMC)
[22] = dose: 50.0 mg/kg/injection, schedule: Q01DX001 (ip), vehicle: carboxymethylcellulose (CMC)

Measured: T/C

COC1(C)C(=O)Oc2c1c1ccccc1c1ccccc21 (stereo unspecified)
inactive: dose: 75.0 mg/kg/injection, schedule: Q01DX001 (ip), vehicle: carboxymethylcellulose (CMC) 94 % of control | dose: 150.0 mg/kg/injection, schedule: Q01DX001 (ip), vehicle: carboxymethylcellulose (CMC) 89 % of control

CCC(=O)c1ccccc1N
inactive: dose: 100.0 mg/kg/injection, schedule: Q01DX009 (ip), vehicle: saline with Tween-80 97 % of control | dose: 200.0 mg/kg/injection, schedule: Q01DX009 (ip), vehicle: saline with Tween-80 105 % of control | dose: 400.0 mg/kg/injection, schedule: Q01DX009 (ip), vehicle: saline with Tween-80 92 % of control

O=C1CCCC2C1CCCC21OCCO1 (stereo unspecified)
inactive: [1] 96 % of control | [2] 96 % of control | [3] 96 % of control

CCOC(=O)C1C2C=CC=CC(=O)C21 (stereo unspecified)
inactive: dose: 100.0 mg/kg/injection, schedule: Q01DX009 (ip), vehicle: other 102 % of control | [4] 95 % of control | dose: 200.0 mg/kg/injection, schedule: Q01DX009 (ip), vehicle: other 95 % of control | [5] 95 % of control | dose: 400.0 mg/kg/injection, schedule: Q04DX003 (ip), vehicle: other 105 % of control

CSc1n[nH]c(=O)[nH]c1=S
inactive: [1] 96 % of control | [2] 101 % of control | [3] 95 % of control

Cc1ccc(OC/C=C/CS(=O)(=O)c2ccc(Cl)cc2)cc1
inactive: dose: 50.0 mg/kg/injection, schedule: Q01DX009 (ip), vehicle: Klucel (hydroxypropylcellulose) (HPC) 98 % of control | dose: 75.0 mg/kg/injection, schedule: Q01DX001 (ip), vehicle: Klucel (hydroxypropylcellulose) (HPC) 96 % of control | [6] 95 % of control | dose: 150.0 mg/kg/injection, schedule: Q01DX001 (ip), vehicle: Klucel (hydroxypropylcellulose) (HPC) 96 % of control | [7] 98 % of control | dose: 300.0 mg/kg/injection, schedule: Q01DX001 (ip), vehicle: Klucel (hydroxypropylcellulose) (HPC) 94 % of control

COC(CO)C(O)C(O)C=O (stereo unspecified)
inactive: dose: 100.0 mg/kg/injection, schedule: Q01DX009 (ip), vehicle: saline 93 % of control | dose: 200.0 mg/kg/injection, schedule: Q01DX009 (ip), vehicle: saline 97 % of control | dose: 400.0 mg/kg/injection, schedule: Q01DX009 (ip), vehicle: saline 102 % of control

CN(C)c1ccc(/C=C2\CC(C)(C)c3ccccc3C2=O)cc1
inactive: dose: 100.0 mg/kg/injection, schedule: Q04DX003 (ip), vehicle: saline sonified 103 % of control | dose: 200.0 mg/kg/injection, schedule: Q04DX003 (ip), vehicle: saline sonified 97 % of control | dose: 400.0 mg/kg/injection, schedule: Q04DX003 (ip), vehicle: saline sonified 103 % of control

Cc1cc(O)c(C(C)C)cc1C1=NCC(C)S1 (stereo unspecified)
inactive: dose: 100.0 mg/kg/injection, schedule: Q01DX005 (ip), vehicle: Klucel (hydroxypropylcellulose) (HPC) 93 % of control | [6] 102 % of control | [8] 100 % of control | dose: 200.0 mg/kg/injection, schedule: Q01DX005 (ip), vehicle: Klucel (hydroxypropylcellulose) (HPC) 90 % of control | [7] 102 % of control | [9] 104 % of control | dose: 400.0 mg/kg/injection, schedule: Q01DX005 (ip), vehicle: Klucel (hydroxypropylcellulose) (HPC) 97 % of control | [10] 87 % of control | [11] 107 % of control

CCCC[P+](CC(C)(C)c1ccc(C)cc1)(c1ccccc1)c1ccccc1
inactive: dose: 1.56 mg/kg/injection, schedule: Q04DX002 (ip), vehicle: saline 96 % of control | dose: 3.13 mg/kg/injection, schedule: Q04DX002 (ip), vehicle: saline 104 % of control | dose: 6.25 mg/kg/injection, schedule: Q04DX002 (ip), vehicle: saline 100 % of control | dose: 12.5 mg/kg/injection, schedule: Q04DX002 (ip), vehicle: saline 96 % of control | dose: 100.0 mg/kg/injection, schedule: Q04DX002 (ip), vehicle: saline with Tween-80 103 % of control

O=C1c2ccccc2-c2ccc(-c3ccccc3)c3ccc(CCc4ccccc4)c1c23
inactive: [12] 100 % of control | [13] 89 % of control | [14] 89 % of control

C(=C\c1ccccc1)/Cc1ccccc1
inactive: [6] 97 % of control | [15] 101 % of control | [7] 95 % of control | [16] 111 % of control | [10] 103 % of control | [17] 92 % of control

O=N[O-].O=N[O-].O=N[O-].O=N[O-].[Co+2].[NH2-].[NH2-]
inactive: [12] 115 % of control | [13] 118 % of control

Cn1ncc(C#N)c1N
inactive: [18] 98 % of control | [1] 110 % of control | [8] 98 % of control | [2] 95 % of control | [9] 91 % of control | [3] 95 % of control | [11] 100 % of control

CCCCCCCCCCCCCCCCCCNC(=S)N/N=C/c1ccc(Cl)cc1Cl
inactive: dose: 50.0 mg/kg/injection, schedule: Q04DX003 (ip), vehicle: other 91 % of control | dose: 100.0 mg/kg/injection, schedule: Q01DX001 (ip), vehicle: other 95 % of control | [4] 96 % of control | dose: 200.0 mg/kg/injection, schedule: Q01DX001 (ip), vehicle: other 86 % of control and 92 % of control | [5] 93 % of control

NC(=O)C1C(=O)c2cccc3c2C1(Br)C(Br)CCC3 (stereo unspecified)
inactive: [1] 93 % of control

Cc1ccc(C(=O)OCC(C)C)s1
inactive: [19] 98 % of control | [20] 101 % of control | [21] 98 % of control

O=C(O)c1cccc2c1oc1c(O)cccc12
inactive: dose: 25.0 mg/kg/injection, schedule: Q04DX002 (ip), vehicle: Klucel (hydroxypropylcellulose) (HPC) 93 % of control | dose: 50.0 mg/kg/injection, schedule: Q04DX002 (ip), vehicle: Klucel (hydroxypropylcellulose) (HPC) 90 % of control | [8] 93 % of control

CSc1nc(N)c2c(=O)c(C(N)=O)cn(C3OC(CO)C(O)C3O)c2n1 (stereo unspecified)
inactive: dose: 100.0 mg/kg/injection, schedule: Q01DX005 (ip), vehicle: saline 95 % of control | dose: 200.0 mg/kg/injection, schedule: Q01DX005 (ip), vehicle: saline 93 % of control

S=P(CP(c1ccccc1)c1ccccc1)(c1ccccc1)c1ccccc1
inactive: dose: 100.0 mg/kg/injection, schedule: Q04DX002 (sc), vehicle: olive oil, sesame oil, peanut oil 100 % of control | dose: 200.0 mg/kg/injection, schedule: Q04DX002 (sc), vehicle: olive oil, sesame oil, peanut oil 107 % of control | dose: 400.0 mg/kg/injection, schedule: Q04DX002 (sc), vehicle: olive oil, sesame oil, peanut oil 104 % of control

CC(=O)OCCCCOC(C)=O
inactive: [1] 105 % of control | [2] 109 % of control | [3] 107 % of control

c1ccc2c(c1)NC1(CCCCC1)S2
inactive: [6] 99 % of control | [15] 104 % of control | [7] 99 % of control | [16] 91 % of control | [10] 91 % of control | [17] 93 % of control

Cn1cc(N)c(=O)[nH]c1=O
inactive: [18] 101 % of control | [1] 101 % of control | [2] 101 % of control | [3] 103 % of control

CCOC(=O)NC(/C=C/c1ccccc1)NC(=O)OCC
inactive: [22] 92 % of control | [19] 95 % of control | [1] 102 % of control | [2] 96 % of control | [21] 95 % of control | [3] 100 % of control

NC1=N/C(=C/[N+](=O)[O-])c2ccccc21
inactive: dose: 6.25 mg/kg/injection, schedule: Q04DX003 (ip), vehicle: saline 93 % of control | dose: 12.5 mg/kg/injection, schedule: Q04DX003 (ip), vehicle: saline 96 % of control

CC1=CC(OC2CCCCO2)C2CC1C2(C)C (stereo unspecified)
inactive: [6] 97 % of control | [15] 98 % of control | [7] 103 % of control | [16] 95 % of control | [10] 92 % of control | [17] 93 % of control

NC1=C(Cl)C(=O)C(N)=C(Cl)C1=O
inactive: [12] 98 % of control | [13] 98 % of control | [14] 88 % of control

Nc1ccc(C(=O)/C=C/c2ccccn2)cc1
inactive: [22] 97 % of control | [19] 103 % of control | [20] 105 % of control | [21] 103 % of control
